Results on 24 molecules are retold here after the NIST ThermoML archive (doi:10.1016/j.tca.2005.04.019).

± gives the expanded uncertainty stated by the source.

The conditions of data set [1]: DTA.
Data set [2] in a line: Molar enthalpy of transition or fusion. Conditions: DSC.

Regarding `CCCCCCCCCC[NH2+]CCCCCCCCCC.[Br-]` [N-decyldecan-1-aminium bromide], the Triple point temperature in data set [1] (Crystal 2) was 330.1 ± 3 K. In data set [2] (Crystal 2), the “Molar enthalpy of transition or fusion” value came to 9.08 ± 0.478 kcal/mol.
Take `CCCCCCCCCC[NH2+]CCCCCCCCCC.O=P([O-])(O)O` [N-decyldecan-1-aminium dihydrogen phosphate]: in data set [1] (Crystal 2), the Triple point temperature is listed as 354.1 ± 3 K. Besides, the “Molar enthalpy of transition or fusion” value in data set [2] (Crystal 2) worked out at 14.6 ± 0.478 kcal/mol.
The like results for `CCCCCCCCCC[NH2+]CCCCCCCCCC.O=[N+]([O-])[O-]` [N-decyldecan-1-aminium nitrate] were, in that order, 333.1 ± 3 K and 15.3 ± 0.239 kcal/mol.
The like results for `CCCCCCCCCCCC[NH2+]CCCCCCCCCCCC.[Br-]` [N-dodecyldodecan-1-aminium bromide] were, in that order, 346.1 ± 3 K and 11.7 ± 0.263 kcal/mol.
The like results for `CCCCCCCCCCCC[NH2+]CCCCCCCCCCCC.[Cl-]` [N-dodecyldodecan-1-aminium chloride] were, in that order, 338.1 ± 3 K and 11.5 ± 0.239 kcal/mol.
`CCCCCCCCCCCC[NH2+]CCCCCCCCCCCC.O=P([O-])(O)O` [N-dodecyldodecan-1-aminium dihydrogen phosphate]: the values for the Triple point temperature in data set [1] (Crystal 2) and in data set [1] (Crystal 3) were 363.1 ± 3 K and 328.1 ± 3 K, respectively. The “Molar enthalpy of transition or fusion” value in data set [2] (Crystal 2) is 19.8 ± 0.717 kcal/mol.
As to `CCCCCCCCCCCC[NH2+]CCCCCCCCCCCC.O=S(=O)([O-])O` [N-dodecyldodecan-1-aminium hydrogen sulfate], the Triple point temperature in data set [1] (Crystal 2) came out at 373.1 ± 3 K; in data set [1] (Crystal 3), 347.1 ± 3 K. In addition, the “Molar enthalpy of transition or fusion” value in data set [2] (Crystal 3) came to 7.17 ± 0.478 kcal/mol.
As for `CCCCCCCCCCCC[NH2+]CCCCCCCCCCCC.[I-]` [N-dodecyldodecan-1-aminium iodide], the Triple point temperature in data set [1] (Crystal 2) worked out at 338.1 ± 3 K. The “Molar enthalpy of transition or fusion” value in data set [2] (Crystal 2) amounted to 9.2 ± 0.239 kcal/mol.
Turning to `CCCCCCCCCCCC[NH2+]CCCCCCCCCCCC.O=[N+]([O-])[O-]` [N-dodecyldodecan-1-aminium nitrate], in data set [1] (Crystal 2), the Triple point temperature was determined as 339.1 ± 3 K. The “Molar enthalpy of transition or fusion” value in data set [2] (Crystal 2) came to 18.4 ± 0.239 kcal/mol.
Take `CCCCCCCCCCCC[NH2+]CCCCCCCCCCCC.[O-][Cl+3]([O-])([O-])[O-]` [N-dodecyldodecan-1-aminium perchlorate]: the Triple point temperature in data set [1] (Crystal 2) is 335.1 ± 3 K. Moreover, in data set [2] (Crystal 2), the “Molar enthalpy of transition or fusion” value came to 17.2 ± 0.478 kcal/mol.
The like results for `CCCCCCCCCCCCCCCCCC[NH2+]CCCCCCCCCCCCCCCCCC.[Br-]` [N-octadecyloctadecan-1-aminium bromide] were, in that order, 371.15 ± 3 K and 19.4 ± 0.478 kcal/mol.
The matching figures for `CCCCCCCCCCCCCCCCCC[NH2+]CCCCCCCCCCCCCCCCCC.[Cl-]` [N-octadecyloctadecan-1-aminium chloride]: 364.35 ± 3 K and 23.2 ± 0.478 kcal/mol.
For the molecule `CCCCCCCCCCCCCCCCCC[NH2+]CCCCCCCCCCCCCCCCCC.O=S(=O)([O-])O` [N-octadecyloctadecan-1-aminium hydrogen sulfate], the Triple point temperature is 355.1 ± 3 K in data set [1] (Crystal 2) and 343.1 ± 3 K in data set [1] (Crystal 3). The “Molar enthalpy of transition or fusion” value in data set [2] (Crystal 3) was determined as 26.1 ± 0.717 kcal/mol.
`CCCCCCCCCCCCCCCCCC[NH2+]CCCCCCCCCCCCCCCCCC.[I-]` [N-octadecyloctadecan-1-aminium iodide]: in data set [1] (Crystal 2), the Triple point temperature is given as 366.15 ± 3 K. Further, the “Molar enthalpy of transition or fusion” value in data set [2] (Crystal 2) turned out to be 17.9 ± 0.717 kcal/mol.
As to `CCCCCCCCCCCCCCCCCC[NH2+]CCCCCCCCCCCCCCCCCC.O=[N+]([O-])[O-]` [N-octadecyloctadecan-1-aminium nitrate], the Triple point temperature in data set [1] (Crystal 2) is 366.65 ± 3 K. In addition, the “Molar enthalpy of transition or fusion” value in data set [2] (Crystal 2) amounted to 26.1 ± 0.717 kcal/mol.
Turning to `CCCCCCCCCCCCCCCCCC[NH2+]CCCCCCCCCCCCCCCCCC.[O-][Cl+3]([O-])([O-])[O-]` [N-octadecyloctadecan-1-aminium perchlorate], the Triple point temperature in data set [1] (Crystal 2) came out at 361.25 ± 3 K. Moreover, the “Molar enthalpy of transition or fusion” value in data set [2] (Crystal 2) worked out at 27.49 ± 0.239 kcal/mol.
The matching figures for `CCCCCCCCNCCCCCCCC.Cl` [N-octyl-1-octaminium hydrochloride]: 294.1 ± 3 K and 8.84 ± 0.239 kcal/mol.
The like results for `CCCCCCCC[NH2+]CCCCCCCC.[Br-]` [N-octyloctan-1-aminium bromide] were, in that order, 303.1 ± 5 K and 5.98 ± 0.239 kcal/mol.
For `CCCCCCCC[NH2+]CCCCCCCC.O=P([O-])(O)O` [N-octyloctan-1-aminium dihydrogen phosphate], in data set [1] (Crystal 2), the Triple point temperature is on record as 333.1 ± 3 K.
As to `CCCCCCCC[NH2+]CCCCCCCC.[I-]` [N-octyloctan-1-aminium iodide], the results for the Triple point temperature in data set [1] (Crystal 2) and in data set [1] (Crystal 3) were 271.1 ± 1 K and 267.1 ± 1 K, respectively. The “Molar enthalpy of transition or fusion” value in data set [2] (Crystal 3) came out at 5.02 ± 0.239 kcal/mol.
`CCCCCCCC[NH2+]CCCCCCCC.O=[N+]([O-])[O-]` [N-octyloctan-1-aminium nitrate]: the Triple point temperature in data set [1] (Crystal 2) is listed as 318.1 ± 3 K. Also, in data set [2] (Crystal 2), the “Molar enthalpy of transition or fusion” value came to 12.8 ± 0.239 kcal/mol.
Take `CCCCCCCC[NH2+]CCCCCCCC.[O-][Cl+3]([O-])([O-])[O-]` [N-octyloctan-1-aminium perchlorate]: the Triple point temperature in data set [1] (Crystal 2) is 296.1 ± 10 K. Moreover, the “Molar enthalpy of transition or fusion” value in data set [2] (Crystal 2) worked out at 8.84 ± 0.478 kcal/mol.
Take `CCCCCCCCCC[NH2+]CCCCCCCCCC.[Cl-]` [didecylammonium chloride]: the Triple point temperature in data set [1] (Crystal 2) was found to be 321.1 ± 3 K. Also, the “Molar enthalpy of transition or fusion” value in data set [2] (Crystal 2) is 9.56 ± 0.239 kcal/mol.
For the molecule `CCCCCCCC[NH2+]CCCCCCCC.O=S(=O)([O-])O` [dioctylammonium hydrogen sulfate], the Triple point temperature in data set [1] (Crystal 2) amounted to 463.15 ± 3 K; in data set [1] (Crystal 3) it was 371.1 ± 3 K; in data set [1] (Crystal 4), 289.1 ± 3 K. For the same molecule, the “Molar enthalpy of transition or fusion” value in data set [2] (Crystal 2) is 1.15 ± 0.717 kcal/mol; in data set [2] (Crystal 3), 0.335 ± 0.0717 kcal/mol; in data set [2] (Crystal 4), 0.98 ± 0.0478 kcal/mol.
